# Legend:
# Type in all cases: cell-based
# [1] = system: T47D (PI3Kα H1047R mutant) cells; assay: CellTiter-Glo 2.0 luminescent cell viability assay, 72 hours, T47D cells; details: Homo sapiens, T47D, 72 h
# Method in brief: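 Viability was measured by CellTiter-Glo 2.0 luminescence after approximately 72 h of compound exposure at 37° C. Plating was 1000 cells per well the day before dosing, with ten 1:4 dilutions from a 10 µM top concentration. Values as percent of vehicle were fitted by variable-slope log(inhibitor) regression to give IC50.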
# [2] = system: SKBR3 (PI3Kα wild type) cells; assay: CellTiter-Glo 2.0 luminescent cell viability assay, 72 hours, SKBR3 cells; details: Homo sapiens, SK-BR-3, 72 h
# Method in brief: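 Viability measured via CTG luminescence following roughly 72 hours of compound exposure at 37° C. Dosing used a 10 um starting concentration diluted 1:4 over 10 points; percent-of-vehicle data fitted with a variable-slope four-parameter model for IC50.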
# [3] = system: SKBR3 (PI3Kα wild type) cells; assay: Inhibition of pAKT formation, alphaLISA SureFire Ultra AKT 1/2/3 (pS473), SKBR3 cells; details: Homo sapiens, SK-BR-3; Inhibition of pAKT in SKBR3 (PI3Kα wild type) cells; read-out: SKBR3 (WT) pAKT IC50 (nM) (H1047R mutant) IC50
# Description: The ability of a compound of Formula (I) to inhibit the formation of pAKT was measured using alphaLISA Surefire Ultra AKT 1/2/3 (pS473) Assay Kit (#ALSU-PAKT-B50K) was obtained from Perkin Elmer (Waltham, MA).
# To prepare assay plates for pAKT alphaLISA assays, cells were trypsinized, resuspended in fresh media, and viable cells were counted utilizing trypan blue exclusion. Prior to seeding, cells were washed with PBS and resuspended in HBSS (Gibco, #14025092). T47D (12,000/w), SKBR3(12,000/w), or MKN1(24,000/w) cells were seeded at 12 μl per well in a solid white flat bottom 384 cell culture plate (Perkin Elmer #6007680).
# Immediately after seeding, cells were dosed using an Echo Liquid Handler (Beckman Coulter) with compounds at a […] starting concentration and serially diluted (1:4) for a total of 10 concentrations. […] Cells were incubated with the compounds (solubilized in DMSO) for approximately one hour or 24 hours at 37° C. After one hour (or 24 hours) of treatment, cells were lysed with 3 μl of the 5× lysis buffer (provided and incubated at room temperature for 15 min on a microtiter plate shaker). Once cells were sufficiently lysed, 7.5 μl of the acceptor bead mix (made using the manufacturers recommended dilutions) was added to each well and left on the microtiter plate shaker for 1 min prior to incubating plates at room temperature for one hour, in the absence of light. After one hour of incubation with the acceptor bead mix, 7.5 μl of the donor bead mix (made using the manufacturers recommended dilutions) was added to each well and left on the microtiter plate shaker for 1 min prior to incubating plates at room temperature overnight in the absence of light. Plates were then imaged the following day using a CLARIOstar microplate reader (BMG Labtech, Germany).
# Percent of control values were calculated by subtracting the average signal from the positive control (alpelisib) treated wells from all treated wells (including DMSO control wells) and then divided by the average signal from the vehicle DMSO treated control wells. Percent of vehicle control values were plotted as log (inhibitor) vs. response-Variable slope (four parameters) for curve fitting and IC50 values were determined using XLfit.
# Key: N.D. =not determined
# [4] = system: T47D (PI3Kα H1047R mutant) cells; assay: Inhibition of pAKT formation, alphaLISA SureFire Ultra AKT 1/2/3 (pS473), T47D cells; details: Homo sapiens, T47D
# Method in brief: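 AKT Ser473 phosphorylation was quantified by alphaLISA SureFire Ultra after roughly 1 h or 24 h compound exposure at 37 °C. Cells were T47D (12,000/well in HBSS), treated with a 10-point 1:4 series starting at 10.4 μM. Percent of control used alpelisib background and DMSO reference, and IC50 came from four-parameter logistic fitting.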
# [5] = T47D (PI3Kα H1047R mutant) cells, CellTiter-Glo, approximately 72 hours, read-out: T47D (H1047R mutant) Viability IC50
# [6] = SKBR3 (PI3Kα wild type) cells, CellTiter-Glo, approximately 72 hours, read-out: SKBR3 (WT) Viability IC50
# [7] = T47D (PI3Kα H1047R mutant) cells, inhibition of pAKT (pS473) formation, approximately one hour or 24 hours treatment, read-out: T47D pAKT (H1047R mutant) IC50
SMILES,"IC50 [1, 5] [nM]","IC50 [2, 6] [nM]",IC50 [3] [nM],"IC50 [4, 7] [nM]",IC50 ([1]; read-out: T47D (H1047R mutant) Viability IC50 (nM)) [nM],IC50 ([2]; read-out: SKBR3 (WT) Viability IC50 (nM)) [nM],IC50 ([4]; read-out: T47D pAKT (H1047R mutant) IC50 (nM)) [nM]
"Cc1cc([C@@H](C)Nc2ccccc2C(=O)O)c2nc(N3CC4CC(C3)C4(F)F)c(C#N)c(=O)n2c1 [Example 10-69, 2-(((1R)-1-(3-cyano-2-(6,6-difluoro-3-azabicyclo[3.1.1]heptan-3-yl)-7-methyl-4-oxo-4H-pyrido[1,2-a]pyrimidin-9-yl)ethyl)amino)benzoic acid]",165,> 10000,1800,3.69,–,–,–
"Cc1cc([C@@H](C)Nc2ccccc2C(=O)O)c2nc(C3CCC(F)(F)CC3)c(C#N)c(=O)n2c1 [Example 10-65, (R)-2-((1-(3-cyano-2-(4,4-difluorocyclohexyl)-7-methyl-4-oxo-4H-pyrido[1,2-a]pyrimidin-9-yl)ethyl)amino)benzoic acid]",246,> 10000,681,3.25,–,–,–
"Cc1cc([C@@H](C)Nc2ccccc2C(=O)O)c2nc(N3CC4(C3)CC(F)(F)C4)c(C#N)c(=O)n2c1 [Example 10-66, (R)-2-((1-(3-cyano-2-(6,6-difluoro-2-azaspiro[3.3]heptan-2-yl)-7-methyl-4-oxo-4H-pyrido[1,2-a]pyrimidin-9-yl)ethyl)amino)benzoic acid]",> 10000,> 10000,> 10000,1370,–,–,–
"Cc1cc([C@@H](C)Nc2nccnc2C(=O)O)c2nc(N3CCC(F)(F)CC3)c(C#N)c(=O)n2c1 [Example 10-63, (R)-3-((1-(3-cyano-2-(4,4-difluoropiperidin-1-yl)-7-methyl-4-oxo-4H-pyrido[1,2-a]pyrimidin-9-yl)ethyl)amino)pyrazine-2-carboxylic acid]",3720,> 10000,> 10000,144,–,–,–
"Cc1cc(C(C)Nc2ccccc2C(=O)O)c2nc(N3CCCCC3)cc(=O)n2c1 (stereo not drawn) [Example 2, 2-((1-(7-methyl-4-oxo-2-(piperidin-1-yl)-4H-pyrido[1,2-a]pyrimidin-9-yl)ethyl)amino) benzoic acid]",–,–,> 10000,–,2970,> 10000,14
"Cc1cc([C@@H](C)Nc2ccc(Cl)cc2C(=O)O)c2nc(N3CCC(F)(F)CC3)c(C#N)c(=O)n2c1 [Example 10-64, (R)-5-chloro-2-((1-(3-cyano-2-(4,4-difluoropiperidin-1-yl)-7-methyl-4-oxo-4H-pyrido[1,2-a]pyrimidin-9-yl)ethyl)amino)benzoic acid]",628,> 10000,847,16.1,–,–,–
"Cc1cc([C@@H](C)Nc2ccccc2C(=O)O)c2nc(N3CCCCC3)c(C(F)(F)F)c(=O)n2c1 [Example 10-71, (R)-2-((1-(7-methyl-4-oxo-2-(piperidin-1-yl)-3-(trifluoromethyl)-4H-pyrido[1,2-a]pyrimidin-9-yl)ethyl)amino)benzoic acid]",4890,> 10000,> 10000,> 10000,–,–,–
"Cc1cc([C@@H](C)Nc2ccccc2C(=O)O)c2nc(N3CCCCC3)c(C(N)=O)c(=O)n2c1 [Example 10-70, (R)-2-((1-(3-carbamoyl-7-methyl-4-oxo-2-(piperidin-1-yl)-4H-pyrido[1,2-a]pyrimidin-9-yl)ethyl)amino)benzoic acid]",4680,> 10000,> 10000,> 10000,–,–,–
"Cc1cc([C@@H](C)Nc2ccc(Cl)nc2C(=O)O)c2nc(N3CCC(F)(F)CC3)c(C#N)c(=O)n2c1 [Example 10-67, (R)-6-chloro-3-((1-(3-cyano-2-(4,4-difluoropiperidin-1-yl)-7-methyl-4-oxo-4H-pyrido[1,2-a]pyrimidin-9-yl)ethyl)amino)picolinic acid]",304,> 10000,> 10000,14.1,–,–,–
"Cc1cc([C@@H](C)Nc2ccccc2C(=O)O)c2nc(N3CCS(=O)(=O)CC3)c(C#N)c(=O)n2c1 [Example 10-68, (R)-2-((1-(3-cyano-2-(1,1-dioxidothiomorpholino)-7-methyl-4-oxo-4H-pyrido[1,2-a]pyrimidin-9-yl)ethyl)amino)benzoic acid]",> 10000,> 10000,> 10000,375,–,–,–

# The next lines start with results.
"IC50 [1, 5] [nM]","IC50 [2, 6] [nM]",IC50 [3] [nM],"IC50 [4, 7] [nM]",SMILES,IC50 ([1]; read-out: T47D (H1047R mutant) Viability IC50 (nM)) [nM],IC50 ([2]; read-out: SKBR3 (WT) Viability IC50 (nM)) [nM],IC50 ([4]; read-out: T47D pAKT (H1047R mutant) IC50 (nM)) [nM]
183,> 10000,3650,7.7,"Cc1cc([C@@H](C)Nc2cscc2C(=O)O)c2nc(N3CCC(F)(F)CC3)c(C#N)c(=O)n2c1 [Example 10-61, (R)-4-((1-(3-cyano-2-(4,4-difluoropiperidin-1-yl)-7-methyl-4-oxo-4H-pyrido[1,2-a]pyrimidin-9-yl)ethyl)amino)thiophene-3-carboxylic acid]",–,–,–
48.3,8970,1200,1.35,"Cc1cc([C@@H](C)Nc2ccccc2C(=O)O)c2nc(N3CCC(F)(F)CC3)c(C#N)c(=O)n2c1 [Example 10-23, (R)-2-((1-(3-cyano-2-(4,4-difluoropiperidin-1-yl)-7-methyl-4-oxo-4H-pyrido[1,2-a]pyrimidin-9-yl)ethyl)amino)benzoic acid]",–,–,–
52,> 10000,780,2.1,"Cc1cc([C@@H](C)Nc2ccccc2C(=O)O)c2nc(N3CC(F)(F)C3)c(C#N)c(=O)n2c1 [Example 10-27, (R)-2-((1-(3-cyano-2-(3,3-difluoroazetidin-1-yl)-7-methyl-4-oxo-4H-pyrido[1,2-a]pyrimidin-9-yl)ethyl)amino)benzoic acid]",–,–,–
135,> 10000,1030,3.29,"Cc1cc([C@@H](C)Nc2ccccc2C(=O)O)c2nc(N3CCCC3)c(C#N)c(=O)n2c1 [Example 10-73, (R)-2-((1-(3-cyano-7-methyl-4-oxo-2-(pyrrolidin-1-yl)-4H-pyrido[1,2-a]pyrimidin-9-yl)ethyl)amino)benzoic acid]",–,–,–
120,> 10000,1460,3.23,"Cc1cc([C@@H](C)Nc2ccccc2C(=O)O)c2nc(N3CCCCC3)c(C)c(=O)n2c1 [Example 10-74, (R)-2-((1-(3,7-dimethyl-4-oxo-2-(piperidin-1-yl)-4H-pyrido[1,2-a]pyrimidin-9-yl)ethyl)amino)benzoic acid]",–,–,–
57.9,> 10000,–,1.97,"Cc1cc([C@@H](C)Nc2ccccc2C(=O)O)c2nc(N3CCN(c4cccnc4)CC3)c(C)c(=O)n2c1 [Example 10-38, (R)-2-((1-(3,7-dimethyl-4-oxo-2-(4-(pyridin-3-yl)piperazin-1-yl)-4H-pyrido[1,2-a]pyrimidin-9-yl)ethyl)amino)benzoic acid]",–,–,–
73.3,> 10000,–,5.17,"Cc1cc([C@@H](C)Nc2ccccc2C(=O)O)c2nc(N3CCN(c4ccccc4)CC3C)c(C#N)c(=O)n2c1 (stereo partly drawn) [Example 10-57, 2-(((1R)-1-(3-cyano-7-methyl-2-(2-methyl-4-phenylpiperazin-1-yl)-4-oxo-4H-pyrido[1,2-a]pyrimidin-9-yl)ethyl)amino)benzoic acid]",–,–,–
38.5,9890,–,2.27,"Cc1cc([C@@H](C)Nc2ccccc2C(=O)O)c2nc(N3CCN(c4ccc(C#N)cc4)CC3)c(C)c(=O)n2c1 [Example 10-1, (R)-2-((1-(2-(4-(4-cyanophenyl)piperazin-1-yl)-3.7-dimethyl-4-oxo-4H-pyrido[1,2-a]pyrimidin-9-yl)ethyl)amino)benzoic acid]",–,–,–

# Reference: patent US20260078120A1, “SUBSTITUTED PYRIDOPYRIMIDINONES” (MIRATI THERAPEUTICS, INC., priority 2022, published 2026)
